Results on 20 molecules are retold here after patent publication US8197833B2, “Liquid concentrate for preserving cosmetics” (Air Liquide Sante (International), priority 1999, dated 2012).

Common to all, as to assay type: physicochemical
Data set [1] in a line: Compatibility with cosmetics additives (absence of precipitates and/or severe discolorations). The following applies: 18.75% water. The method, then: (§1) To 100 parts by weight of a preparation consisting of 18.75% by weight of K sorbate, 31.25% by weight of phenoxyethanol, 31.25% by weight of benzyl alcohol and 18.75% by weight of demineralized water were added, in individual experiments, up to 4 parts by weight of a number of cosmetics additives, and the compatibility was tested (test for absence of precipitates and/or severe discolorations). […] The above-mentioned preparation was incompatible with the antimicrobial active ingredients Vantocil IB (polyhexamethylene biguanide), bronopol and dibromodicyanobutane since in each case the addition of these active ingredients and storage led to severe discoloration of the solution.
as §1, with “of 15%” for “of 18.75%”, “sorbate, 30%” for “sorbate, 31.25%”, “of Na benzoate, 5%” for “of phenoxyethanol, 31.25%”, “of phenoxyethanol” for “of benzyl alcohol”, “and 50%” for “and 18.75%”, “The abovementioned” for “The above-mentioned”
A preparation consisting of 18.75% by weight of K sorbate, 28.75% by weight of benzyl alcohol, 28.75% by weight of phenoxyethanol, 18.75% by weight of demineralized water and 5% by weight of cosmetics additive was prepared.

Experiment in data set [2]: as above
To be noted: Example 6B: up to 4 parts additive to 100 parts of 15% K sorbate, 30% Na benzoate, 5% phenoxyethanol, 50% water.

Data set [3] is described as follows: Colour stability, Hazen colour number. The following applies: addition to liquid concentrates, Examples 5D-5F. The method, then:
The Hazen colour number is the number of mg of platinum [as potassium hexachloroplatinate (IV) containing cobalt (II) chloride hexahydrate in a ratio of 1.246:1 dissolved in 1000 ml of aqueous hydrochloric acid] which has virtually the same colour as the sample when the path length is the same.
Improvement in the Colour Stability of the Liquid Concentrates According to the Invention

The mark [4] stands for this setting: Example 6A: up to 4 parts additive to 100 parts of 18.75% K sorbate, 31.25% phenoxyethanol, 31.25% benzyl alcohol.
The mark [5] stands for this setting: Example 6C: 5% additive in 18.75% K sorbate, 28.75% benzyl alcohol, 28.75% phenoxyethanol.

Regarding `Cc1cc(C(C)(C)C)c(O)c(C(C)(C)C)c1` [2,6-di-tert-butyl-p-cresol], the “compatibility of additive with preparation” value (shortened to “compatibility of additive”) in data set [1] (setting [4]) and in data set [2] was “sufficiently compatible” each time.
On to `OCCCc1ccccc1` [3-phenyl-1-propanol], for which the “compatibility of additive” value in data set [1] (setting [4]) and in data set [2] was “sufficiently compatible” in each case.
For the molecule `COc1ccc(O)c(C(C)(C)C)c1` [3-tert-butyl-4-hydroxyanisole], the “compatibility of additive” value in data set [1] (setting [4]) and in data set [2] was “sufficiently compatible” in each case.
In the case of `Cl/C=C\C[N+]12CN3CN(CN(C3)C1)C2.[Cl-]` [Dowicil 200], the “compatibility of additive” value in data set [1] (setting [5]) is recorded as “sufficiently compatible”.
As to `CC1(C)C(=O)N(CO)C(=O)N1CO` [Glydant XL 1000, 1,3-dimethylol-5,5-dimethylhydantoin], the “compatibility of additive” value in data set [1] (setting [4]) and in data set [2] was “sufficiently compatible” in each case.
On to `O=C1O[C@H]([C@@H](O)CO)C(O)=C1O` [ascorbic acid], for which the “compatibility of additive” value in data set [1] (setting [4]) and in data set [2] was “sufficiently compatible” each time.
For the molecule `O=[N+]([O-])C(Br)(CO)CO` [bronopol], the “compatibility of additive” value in data set [1] (setting [4]) and in data set [2] was “incompatible” each time.
In the case of `CC(C)(CO)[C@@H](O)C(=O)NCCCO` [dexpanthenol], the “compatibility of additive” value in data set [1] (setting [4]) and in data set [2] was “sufficiently compatible” in each case.
As to `N#CCCC(Br)(C#N)CBr` (stereo not drawn) [dibromodicyanobutane], the “compatibility of additive” value in data set [1] (setting [4]) and in data set [2] was “incompatible” throughout.
For `CCOC(=O)c1ccc(O)cc1` [ethylparaben], the “compatibility of additive” value in data set [1] (setting [4]) and in data set [2] was “sufficiently compatible” each time.
On to `CC(C)=CCCC(C)=CCCC(C)=CCO` [farnesol], for which the “compatibility of additive” value in data set [1] (setting [4]) and in data set [2] was “sufficiently compatible” each time.
Turning to `CCCCNC(=O)OCC#CI` [iodopropynylbutyl carbamate], the “compatibility of additive” value in data set [1] (setting [4]) and in data set [2] was “sufficiently compatible” each time.
For `COC(=O)c1ccc(O)cc1` [methylparaben], the “compatibility of additive” value in data set [1] (setting [5]) is “sufficiently compatible”.
As to `OCCc1ccccc1` [phenethyl alcohol], the “compatibility of additive” value in data set [1] (setting [4]) and in data set [2] was “sufficiently compatible” throughout.
Consider `O=C([O-])C(O)c1ccccc1.[K+]` (stereo not drawn) [potassium salt of mandelic acid], for which the “compatibility of additive” value in data set [1] (setting [4]) and in data set [2] was “sufficiently compatible” in each case.
As for `CCCOC(=O)c1ccc(O)cc1` [propylparaben], the “compatibility of additive” value in data set [1] (setting [5]) is “sufficiently compatible”.
As for `O=C1O[C@H]([C@@H](O)CO)C([O-])=C1O.[Na+]` [sodium ascorbate], the “compatibility of additive” value in data set [1] (setting [4]) and in data set [2] was “sufficiently compatible” in each case.
With `O=C([O-])CC(O)(CC(=O)[O-])C(=O)[O-].[Na+].[Na+].[Na+]` [sodium citrate], in data set [3], the “effect of additive on colour stability” value is listed as “significantly improves the colour stability”.
benzalkonium chloride: the “compatibility of additive” value in data set [1] (setting [4]) and in data set [2] was “sufficiently compatible” in each case.
Take vitamin E: the “compatibility of additive” value in data set [1] (setting [4]) and in data set [2] was “sufficiently compatible” each time.
